Experimental data from patent EP0373195B1, “COMPOSITION FOR INCREASING MELANIN CONTENT OF MELANOCYTES IN-VIVO AND IN-VITRO AND METHODS FOR THE IN-VITRO USE THEREOF” (TRUSTEES OF BOSTON UNIVERSITY, priority 1988, dated 1989).

Assays:
human melanocytes [1] = assay: Dendricity (morphology) of cultured human melanocytes; assay type: cell-based
Method: In certain instances, phase contrast micrographs were taken using an inverted microscope after the cultures were washed once with phosphate buffered saline.
(§1) A first experimental series was performed which utilized human melanocytes combined with the preferred DAG, 1-oleoyl-2-acetyl-glycerol, selected for its efficiency of intercalating into melanocyte membranes. Neonatal foreskins obtained within two hours of elective circumcision were the source of human melanocytes. The epidermis was separated from the dermis after overnight incubation in 0.25% trypsin. Melanocytes were established in primary culture according to the procedure of Gilchrest et al. [J. Invest. Dermatol. 83:370-376 (1984)]. The preferred DAG was combined with human melanocytes in complete melanocyte medium and incubated together for a period of 6 days at 37°C.
(§2) A second experimental series was conducted in which the cultured human melanocytes were first pretreated with tetradecanoyl phorbol-13-acetate (hereinafter "TPA") at a concentration of 100 nM. Initially, the human melanocytes were obtained and grown as previously described. Subsequently, the cultured human melanocytes were combined with 100 nM of TPA in melanocyte medium and incubated at 37°C for 24 hours. The DAG was then added and the culture incubated again for 6 days. The melanin content of the cells was then evaluated in accordance with the procedure as previously described herein.

S91 melanoma cells [2] = assay: Melanin content of S91 melanoma cells in culture; assay type: cell-based, murine; settings: DMEM with 2% FBS, 37°C, 7 days
Method: To determine melanin content, the remaining suspension was centrifuged for 5 minutes in a microcentrifuge; the supernatant discarded; and the resulting cell pellet dissolved in 0.1 ml of a 1 M NaOH which was subsequently diluted with 0.4 ml of water. Melanin concentration was calculated by determination of optical density at 475 nanometers; and values extrapolated by comparison with a standard curve of determinations for synthetic melanin, a measurement of melanogenesis which correlates extremely well with ¹⁴C-DOPA incorporation and with tyrosinase activity [Friedmann and Gilchrest, J. Cell. Physiol. 133:88-94 (1987)]. Melanin values were expressed as total melanin per culture; or as melanin content per cell; or as percent of untreated controls.
This experimental series was performed to evaluate the effect of a DAG on melanocytes derived from animal sources, rather than humans. In this experimental series, murine S91 melanoma cells were grown and maintained in culture using conventional techniques [Friedmann and Gilchrest, J. Cell. Physiol. 133:88-94 (1987)]. The grown S91 melanoma cells were then combined with 100 »M of the preferred DAG, 1-oleoyl-2-acetyl-glycerol; or with 100 »M of 3-isobutyl-1-methylxanthine (IBMX). Each chemical agent was combined with the S91 melanoma cells in Dulbecco's […] Eagle's Medium containing 2% FBS at 37°C for 7 days. […]

human melanocytes [3] = assay: Melanocyte bioassay: cell number / proliferation of cultured human melanocytes; assay type: cell-based
Method: (§3) Melanocytes were seeded at 2 x 10⁴ cells per 35 mm dish and combined with KPGM supplemented with 2% FBS and 100 ug/ml of BHE, now designated as complete melanocyte medium. After 24 hours incubation at 37 C, the grown melanocyte cultures, in duplicate or triplicate, received one of the following: free complete melanocyte medium; or supplemented whole KDCM. Each melanocyte culture was then incubated for 6-7 days at 37 C. Subsequently, each melanocyte culture was harvested and the cell number per dish empirically determined. Each melanocyte culture was washed with a 0.4 mM EDTA in PBS; treated with 1 ml of a mixture containing 0.13% trypsin and 0.2 mM EDTA; then incubated approximately 10 minutes at 37 C; followed by addition of 1 ml of PBS. Subsequently, a 0.5 ml aliquot of each resulting suspension was diluted to 10 ml total volume using isotonic saline and processed using a particle counter (Model ZM, Colter Science).
as §1, §2

S91 melanoma cells [4] = assay: Proliferation of S91 melanoma cells in culture; assay type: cell-based, murine; settings: DMEM with 2% FBS, 37°C, 7 days
Method: as §3
This experimental series was performed to evaluate the effect of a DAG on melanocytes derived from animal sources, rather than humans. In this experimental series, murine S91 melanoma cells were grown and maintained in culture using conventional techniques [Friedmann and Gilchrest, J. Cell. Physiol. 133:88-94 (1987)]. […]

human melanocytes [5] = assay: Melanocyte bioassay: melanin content of cultured human melanocytes; assay type: cell-based; settings: for melanization / melanin content per human melanocyte (Fig. 3): DAG added after pretreatment with 100 nM TPA for 24 hours, then 6 days
Method: Melanocytes were seeded at 2 x 10^4 cells per 35 mm dish and combined with KPGM supplemented with 2% FBS and 100 ug/ml of BHE, now designated as complete melanocyte medium. After 24 hours incubation at 37 C, the grown melanocyte cultures, in duplicate or triplicate, received one of the following: free complete melanocyte medium; or supplemented whole KDCM. Each melanocyte culture was then incubated for 6-7 days at 37 C. Subsequently, each melanocyte culture was harvested and the cell number per dish empirically determined. Each melanocyte culture was washed with a 0.4 mM EDTA in PBS; treated with 1 ml of a mixture containing 0.13% trypsin and 0.2 mM EDTA; then incubated approximately 10 minutes at 37 C; followed by addition of 1 ml of PBS. Subsequently, a 0.5 ml aliquot of each resulting suspension was diluted to 10 ml total volume using isotonic saline and processed using a particle counter (Model ZM, Colter Science). To determine melanin content, the remaining suspension was centrifuged for 5 minutes in a microcentrifuge; the supernatant discarded; and the resulting cell pellet dissolved in 0.1 ml of a 1 M NaOH which was subsequently diluted with 0.4 ml of water. Melanin concentration was calculated by determination of optical density at 475 nanometers; and values extrapolated by comparison with a standard curve of determinations for synthetic melanin, a measurement of melanogenesis which correlates extremely well with 14C-DOPA incorporation and with tyrosinase activity [[…] and […]. Cell. Physiol. 133:88-94 (1987)]. Melanin values were expressed as total melanin per culture; or as melanin content per cell; or as percent of untreated controls. […] Neonatal foreskins obtained within two hours of elective circumcision were the source of human melanocytes. The epidermis was separated from the dermis after overnight incubation in 0.25% trypsin. Melanocytes were established in primary culture according to the procedure of […] et al. [J. Invest. Dermatol. 83:370-376 (1984)]. The preferred DAG was combined with human melanocytes in complete melanocyte medium and incubated together for a period of 6 days at 37°C. […] At an optimal concentration of 100 »M, this DAG produced an average of a 4 fold increase in cellular melanin content per cell over the untreated control. […] Initially, the human melanocytes were obtained and grown as previously described. Subsequently, the cultured human melanocytes were combined with 100 nM of TPA in melanocyte medium and incubated at 37°C for 24 hours. The DAG was then added and the culture incubated again for 6 days. The melanin content of the cells was then evaluated in accordance with the procedure as previously described herein. The results are graphically illustrated by Figs. 2 and 3 respectively.

[6] = DAG added after pretreatment with 100 nM TPA for 24 hours, then 6 days
[7] = agent alone (DAG 6 days; TPA 100 nM pretreatment)

Row | Molecule | induction of dendricity (human melanocytes [1]; [6]) | dendricity of human melanocytes (human melanocytes [1]; DAG alone, 6 days at 37°C) | melanin production in S91 melanoma cells in comparison to controls (Fig. 5) (S91 melanoma cells [2]; DAG) | melanocyte proliferation or growth (Figs. 1a and 1b) (human melanocytes [3]; 25 - 200 »M, 6 days at 37°C) | human melanocyte proliferation (Fig. 2) (human melanocytes [3]; [6]) | human melanocyte proliferation (Fig. 2) (human melanocytes [3]; [7]) | proliferation of S91 melanoma cells (Fig. 4) (S91 melanoma cells [4]; concentrations ranging from 1-200 uM) | melanization / melanin content per human melanocyte (Fig. 3) (human melanocytes [5]; listed as DAG) | melanization / melanin content per human melanocyte (Fig. 3) (human melanocytes [5]; listed as diacylglycerol) | fold induction at 100 µM (human melanocytes [5]; Homo sapiens, 144 h, optimal concentration of 100 »M, 6 days at 37°C in complete melanocyte medium, read-out: increase in cellular melanin content per cell over the untreated control) | melanin content (Figs. 1a and 1b) (human melanocytes [5]; concentration levels 25 - 200 »M, 6 days at 37°C) | melanization (human melanocytes [5]; diacylglycerol alone, second experimental series, 6 days) | melanin production in S91 melanoma cells (Fig. 5) (S91 melanoma cells [2]; 100 »M) | proliferation / cellular growth of S91 melanoma cells (Fig. 4) (S91 melanoma cells [4]; 100 »M) | dendricity (human melanocytes [1]; TPA alone, 100 nM)
1 | CCCCCCCC/C=C\CCCCCCCC(=O)OCC(CO)OC(C)=O (stereo not shown) [1-oleoyl-2-acetyl-glycerol] | equally effective at melanization and the induction of dendricity | did not increase the dendricity | consistently failed to induce any substantial increases in melanin production | no meaningful effects on melanocyte proliferation or growth | neither the DAG analogue, nor the pretreatment with TPA, nor their combination has any substantial effect | neither the DAG analogue, nor the pretreatment with TPA, nor their combination has any substantial effect | effectively failed to induce proliferation | major and significant increases in melanin content per human melanocyte as a function of TPA pretreatment in amounts meaningfully greater than that of the chosen DAG analogue alone | equally effective at melanization | 4 | clear dose dependent response to increased melanin content | induced increased melanization | – | – | –
2 | CC(C)Cn1c(=O)n(C)c(=O)c2[nH]cnc21 [IBMX, 3-isobutyl-1-methylxanthine, reference compound] | – | – | – | – | – | – | – | – | – | – | – | – | caused a major increase in melanin production | failed to produce any cellular growth | –
3 | tetradecanoyl phorbol-13-acetate [TPA, reference compound] | – | – | – | – | – | neither the DAG analogue, nor the pretreatment with TPA, nor their combination has any substantial effect | – | – | – | – | – | – | – | – | induced extreme dendricity
